The source of these data is patent US12180226B2, “Spirotricycle RIPK1 inhibitors and methods of uses thereof” (Merck Sharp & Dohme LLC, priority 2021, dated 2024).

Structures can show the parent of a compound that is named as a salt.

The target of this test is RIPK1 (recombinant GST-RIPK1 kinase domain, residues 1-327) (Homo sapiens (Human), UniProt Q13546). Description: RIPK1-ADP-Glo Enzymatic Assay. It is filed as biochemical. The note with it: ADP-Glo; 25 nM GST-RIPK1, 300 μM ATP; assay lower limit ~25 nM; read-out: RIPK1 V0 Ec50. The method in brief: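 Inhibition of ADP formation was measured after compound and enzyme (25 nM) were pre-incubated for 30 minutes at ambient temperature and the kinase reaction ran for 150 minutes at 300 μM ATP with dephosphorylated MBP substrate. EC50 values come from ten-point curves fitted non-linearly.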
RIPK1 (recombinant GST-RIPK1 kinase domain, residues 1-327), sequence (Q13546 1-327): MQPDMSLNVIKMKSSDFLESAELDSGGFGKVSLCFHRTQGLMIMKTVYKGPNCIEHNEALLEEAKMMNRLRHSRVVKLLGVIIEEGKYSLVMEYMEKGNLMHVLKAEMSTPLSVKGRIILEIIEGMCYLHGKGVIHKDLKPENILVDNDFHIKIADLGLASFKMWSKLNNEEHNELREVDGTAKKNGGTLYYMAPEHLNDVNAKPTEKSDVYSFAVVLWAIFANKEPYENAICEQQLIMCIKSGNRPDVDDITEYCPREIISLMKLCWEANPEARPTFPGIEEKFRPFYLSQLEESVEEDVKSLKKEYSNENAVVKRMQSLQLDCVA
Consider `N#Cc1ccc(N2CCC3(CC2)O[C@@H]2CC[C@@H](c4ccccc4)N2C3=O)c(F)c1` [Example 4.73, 3-fluoro-4-[(5′S,7a′R)-3′-oxo-5′-phenyltetrahydro-1H,3′H-spiro[piperidine-4,2′-pyrrolo[2,1-b] [1,3]oxazol]-1-yl]benzonitrile], for which the EC50 was below 25 nM.
With `N#Cc1cccc(N2CCC3(CC2)O[C@@H]2CC[C@@H](c4ccccc4)N2C3=O)n1` [Example 4.29, 6-[(5′S,7a′R)-3′-oxo-5′-phenyltetrahydro-1H,3′H-spiro[piperidine-4,2′-pyrrolo[2,1-b] [1,3]oxazol]-1-yl]pyridine-2-carbonitrile], the EC50 was below 25 nM.
Turning to `O=C(c1cc(F)ccc1F)N1CCC2(CC1)O[C@@H]1CC[C@@H](c3ccccc3)N1C2=O` [Example 1.11, (5′S,7a′R)-1-(2,5-difluorobenzene-1-carbonyl)-5′-phenyltetrahydro-3′H-spiro[piperidine-4,2′-pyrrolo[2,1-b] [1,3]oxazol]-3′-one], the EC50 was below 25 nM.
As to `O=C1N2[C@@H](CC[C@H]2c2ccccc2)OC12CCN(c1ccc(-c3cc(O)no3)cn1)CC2` [Example 4.193, (5′S,7a′R)-1-[5-(3-hydroxy-1,2-oxazol-5-yl)pyridin-2-yl]-5′-phenyltetrahydro-3′H-spiro[piperidine-4,2′-pyrrolo[2,1-b] [1,3]oxazol]-3′-one], the EC50 was below 25 nM.
As to `COc1nc(N2CCC3(CC2)O[C@@H]2CC[C@@H](c4cc(F)cc(F)c4)N2C3=O)ncc1C` [Example 4.59, (5′S,7a′R)-5′-(3,5-difluorophenyl)-1-(4-methoxy-5-methylpyrimidin-2-yl)tetrahydro-3′H-spiro[piperidine-4,2′-pyrrolo[2,1-b] [1,3]oxazol]-3′-one], the EC50 was found to be 149 nM.
To `O=C1N2[C@@H](CC[C@H]2c2cc(F)cc(F)c2)OC12CCN(c1ncc(F)c(C3CC3)n1)CC2` [Example 4.65, (5′S,7a′R)-1-(4-cyclopropyl-5-fluoropyrimidin-2-yl)-5′-(3,5-difluorophenyl)tetrahydro-3′H-spiro[piperidine-4,2′-pyrrolo[2,1-b] [1,3]oxazol]-3′-one] belongs 164 nM; to `O=C1N2[C@@H](CC[C@H]2c2ccccc2)OC12CCN(c1ncc(-c3ncco3)cn1)CC2` [Example 21.15, (5′S,7a′R)-1-[5-(1,3-oxazol-2-yl)pyrimidin-2-yl]-5′-phenyltetrahydro-3′H-spiro[piperidine-4,2′-pyrrolo[2,1-b][1,3]oxazol]-3′-one], below 25 nM; to `O=C(c1cccc2c1CCC2)N1CCC2(CC1)O[C@@H]1CC[C@@H](c3cc(F)cc(F)c3)N1C2=O` [Example 5.29, (5′S,7a′R)-5′-(3,5-difluoro-phenyl)-1-(2,3-dihydro-1H-indene-4-carbonyl)-tetrahydro-3′H-spiro [piperidine-4,2′-pyrrolo-[2,1-b]oxazol]-3′-one], 62.2 nM.
Consider `O=C(c1ccccc1)N1CCC2(CC1)SC1CC[C@H](c3cc(F)cc(F)c3)N1C2=O` (stereo partly drawn) [Example 1.21, (5′R)-1-benzoyl-5′-(3,5-difluorophenyl)tetrahydro-3′H-spiro[piperidine-4,2′-pyrrolo[2,1-b]thiazol]-3′-one], for which the EC50 amounted to 501 nM.
The value for `COc1ncccc1C(=O)N1CCC2(CC1)O[C@@H]1CC[C@@H](c3cc(F)cc(F)c3)N1C2=O` [Example 6.18, (5′S,7a′R)-5′-(3,5-difluorophenyl)-1-(2-methoxypyridine-3-carbonyl)tetrahydro-3′H-spiro[piperidine-4,2′-pyrrolo[2,1-b] [1,3]oxazol]-3′-one] was 154 nM; that for `O=C1N2[C@@H](CC[C@H]2c2cc(F)cc(F)c2)OC12CCN(c1ncc(Cl)cn1)CC2` [Example 4.63, (5′S,7a′R)-1-(5-chloropyrimidin-2-yl)-5′-(3,5-difluorophenyl)tetrahydro-3′H-spiro[piperidine-4,2′-pyrrolo[2,1-b] [1,3]oxazol]-3′-one] was 48.6 nM.
On to `N#Cc1cccc(C(=O)N2CCC3(CC2)O[C@@H]2CC[C@@H](c4cccc(F)c4)N2C3=O)c1` [Example 6.115, 3-[(5′S,7a′R)-5′-(3-fluorophenyl)-3′-oxo-tetrahydro-1H,3′H-spiro[piperidine-4,2′-pyrrolo[2,1-b][1,3]-oxazole]-1-carbonyl] benzonitrile], for which the EC50 was below 25 nM.
The value for `O=C(c1cnc(C(F)F)cn1)N1CCC2(CC1)O[C@@H]1CC[C@@H](c3cc(F)cc(F)c3)N1C2=O` [Example 6.84, (5′S,7a′R)-1-[5-(difluoromethyl)pyr-azine-2-carbonyl]-5′-(3,5-difluorophenyl)-tetrahydro-3′H-spiro [piperidine-4,2′-pyrrolo[2,1-b][1,3]-oxazol]-3′-one] was 405 nM; that for `O=C1N2[C@@H](CC[C@H]2c2ccccc2)OC12CCN(c1nccc(-c3ccccn3)n1)CC2` [Example 11.11, (5′S,7a′R)-5′-phenyl-1-[4-(pyridin-2-yl)pyrimidin-2-yl]tetrahydro-3′H-spiro[piperidine-4,2′-pyrrolo[2,1-b][1,3]oxazol]-3′-one] was 42 nM; that for `COc1cc(C(=O)N2CCC3(CC2)O[C@@H]2CC[C@@H](c4ccccc4)N2C3=O)ccc1F` [Example 6.158, (5′S,7a′R)-1-(4-fluoro-3-methoxybenzene-1-carbonyl)-5′-phenyl-tetrahydro-3′H-spiro [piperidine-4,2′-pyrrolo[2,1-b][1,3]oxazol]-3′-one] was below 25 nM.
To `C#Cc1ccccc1C(=O)N1CCC2(CC1)O[C@@H]1CC[C@@H](c3cc(F)cc(F)c3)N1C2=O` [Example 5.23, (5′S,7a′R)-5′-(3,5-difluoro-phenyl)-1-(2-ethynyl-benzoyl)tetrahydro-3′H-spiro[piperidine-4,2′-pyrrolo[2,1-b]oxazol]-3′-one] belongs 143 nM; to `O=C1N2[C@@H](CC[C@H]2c2cc(F)cc(F)c2)OC12CCN(c1nccn3cccc13)CC2` [Example 13.10, (5′S,7a′R)-5′-(3,5-difluorophenyl)-1-(pyrrolo[1,2-a]pyrazin-1-yl)tetrahydro-3′H-spiro[piperidine-4,2′-pyrrolo[2,1-b]oxazol]-3′-one], 36.8 nM; to `O=C1N2[C@@H](CC[C@H]2c2cc(F)cc(F)c2)OC12CCN(c1ccnn3ccnc13)CC2` [Example 13.3, (5′S,7a′R)-5′-(3,5-difluorophenyl)-1-(imidazo[1,2-b]pyridazin-8-yl)tetrahydro-3′H-spiro[piperidine-4,2′-pyrrolo[2,1-b]oxazol]-3′-one, TFA salt], below 25 nM.
Consider `Cc1ccc(C)c(C(=O)N2CCC3(CC2)O[C@@H]2CC[C@@H](c4ccccc4)N2C3=O)c1` [Example 6.142, (5′S,7a′R)-1-(2,5-dimethylbenzene-1-carbonyl)-5′-phenyl-tetrahydro-3′H-spiro [piperidine-4,2′-pyrrolo[2,1-b][1,3]oxazol]-3′-one], for which the EC50 is 75.1 nM.
Turning to `O=C1N2[C@@H](CC[C@H]2c2ccccc2)OC12CCN(c1ncc(-c3cnco3)cc1F)CC2` [Example 21.5, (5′S,7a′R)-1-[3-fluoro-5-(1,3-oxazol-5-yl)pyridin-2-yl]-5′-phenyltetrahydro-3′H-spiro[piperidine-4,2′-pyrrolo[2,1-b][1,3]oxazol]-3′-one], the EC50 was below 25 nM.
Take `O=C(c1ccccn1)N1CCC2(CC1)O[C@@H]1CC[C@@H](c3cc(F)cc(F)c3)N1C2=O` [Example 6.101, (5′S,7a′R)-5′-(3,5-difluorophenyl)-1-(pyridine-2-carbonyl) tetrahydro-3′H-spiro [piperidine-4,2′-pyrrolo[2,1-b][1,3]-oxazol]-3′-one]: the EC50 came out at 56.9 nM.
The value for `O=C(c1cocn1)N1CCC2(CC1)O[C@@H]1CC[C@@H](c3cc(F)cc(F)c3)N1C2=O` [Example 5.30, (5′S,7a′R)-5′-(3,5-difluoro-phenyl)-1-(1-oxazole-4-carbonyl)tetrahydro-3′H-spiro[piperidine-4,2′-pyrrolo[2,1-b]oxazol]-3′-one] was 28.4 nM; that for `N#Cc1ccc(N2CCC3(CC2)O[C@@H]2CC[C@@H](c4ccccc4)N2C3=O)n2ncc(Br)c12` [Example 4.183, 3-bromo-7-[(5′S,7a′R)-3′-oxo-5′-phenyltetrahydro-1H,3′H-spiro[piperidine-4,2′-pyrrolo[2,1-b] [1,3]oxazol]-1-yl]pyrazolo[1,5-a] pyridine-4-carbonitrile] was below 25 nM.
`O=C(c1noc2c1CCCC2)N1CCC2(CC1)O[C@@H]1CC[C@@H](c3cc(F)cc(F)c3)N1C2=O` [Example 6.17, (5′S,7a′R)-5′-(3,5-difluorophenyl)-1-(4,5,6,7-tetrahydro-1,2-benoxazole-3-carbonyl)tetrahydro-3′H-spiro[piperidine-4,2′-pyrrolo[2,1-b] [1,3]oxazol]-3′-one]: the EC50 worked out at 173 nM.
Regarding `O=C(c1coc(Cl)n1)N1CCC2(CC1)O[C@@H]1CC[C@@H](c3cccc(F)c3)N1C2=O` [Example 6.127, (5′S,7a′R)-1-(2-chloro-1,3-oxazole-4-carbon-yl)-5′-(3-fluorophenyl)-tetrahydro-3′H-spiro [piperidine-4,2′-pyrrolo[2,1-b][1,3]oxazol]-3′-one], the EC50 was 60.8 nM.
To `N#Cc1cnc(N2CCC3(CC2)O[C@@H]2CC[C@@H](c4cc(F)cc(F)c4)N2C3=O)nc1` [Example 4.76, 2-[(5′S,7a′R)-5′-(3,5-difluorophenyl)-3′-oxotetrahydro-1H,3′H-spiro[piperidine-4,2′-pyrrolo[2,1-b] [1,3]oxazol]-1-yl]pyrimidine-5-carbonitrile] belongs 38.2 nM; to `O=C1N2[C@@H](CC[C@H]2c2ccccc2)OC12CCN(c1ccc(-c3ncco3)c3ncnn13)CC2` [Example 4.180, (5′S,7a′R)-1-[8-(1,3-oxazol-2-yl)[1,2,4]triazolo[1,5-a]pyridin-5-yl]-5′-phenyltetrahydro-3′H-spiro[piperidine-4,2′-pyrrolo[2,1-b] [1,3]oxazol]-3′-one], below 25 nM.

Usually EC50 stands for the concentration that produces a half-maximal response.
